{
  "source": "patent US20210145841A1",
  "about": "“ENHANCEMENT OF DELIVERY OF LIPOPHILIC ACTIVE AGENTS ACROSS THE BLOOD-BRAIN BARRIER AND METHODS FOR TREATING CENTRAL NERVOUS SYSTEM DISORDERS” (POVIVA CORP., priority 2018, published 2021)",
  "origin": "cited, not measured here",
  "settings": "in vivo",
  "data": [
    {"smiles": "CC1=CC[C@H]2C[C@@H]1C2(C)C", "note": "[α-Pinene, (1S,5S)-2,6,6-Trimethylbicyclo[3.1.1]hept-2-ene]", "values": [
      {"measurement": "human pulmonary uptake", "result": 60, "unit": "%"}
    ]}
  ]
}
